Series [1] relates to RAW264.7. Description: Antiinflammatory activity in mouse RAW264.7 cells assessed as inhibition of LPS-induced TNF-alpha production after 6 hrs by ELISA. The note with it: for IC50: RAW264.7, 6 h. It is filed as functional, cell-based. (In general: An ELISA detects its analyte on a solid surface through an enzyme-linked reagent.)
For series [2], the system named is RAW264.7. Description: Antiinflammatory activity in mouse RAW264.7 cells assessed as inhibition of LPS-induced TNF-alpha production at 10 uM after 6 hrs by ELISA. It is filed as functional. The following applies: RAW264.7, 6 h.
The test system of series [3] is RAW264.7. Description: Inhibition of NF-kappaB transcriptional activity in LPS-stimulated mouse RAW264.7 cells by dual luciferase reporter assay relative to renilla luciferase activity. It is filed as cell-based. (Reporter assays use an easily measured gene product as a stand-in for the process of interest.)
The subject of series [4] is RAW264.7. Description: Cytotoxicity against mouse RAW264.7 cells. It is filed as cell-based.

Here are results for 13 molecules from ChEMBL document CHEMBL1287731, “Synthesis and in vitro inhibitory activity of matrine derivatives towards pro-inflammatory cytokines” (Bioorg Med Chem Lett, 2010).

Molecules are shown by their SMILES. Where only a bound is given, the exact number is not on record here.

As a reminder, the inhibition is the change of the read-out against control, counted positive when it falls. A word on the IC50: it is the concentration that inhibits the measured activity by half.

As to `CC(C)N[C@@H]1CC(=S)N2C[C@@H]3CCCN4CCC[C@@H]([C@H]34)[C@H]2C1`, in the series on RAW264.7 [1], the inhibition result is “Dose-dependent effect” and the half-inhibitory concentration (IC50) amounted to 52.3 µM. Besides, in the series on RAW264.7 [2], the inhibition at 10 µM was determined as 24%. In the series with RAW264.7 [3], this molecule had a fold change (FC) of 6.56. The Activity result with RAW264.7 [4] is on record as “Non-toxic”.

`S=C1C[C@@H](NCc2ccccc2)C[C@@H]2[C@H]3CCCN4CCC[C@@H](CN12)[C@@H]34`: in the series on RAW264.7 [1], the inhibition result was “Dose-dependent effect” and the IC50 is 62 µM. Further, in the series with RAW264.7 [2], the inhibition at 10 µM stood at 33.9%. In the series on RAW264.7 [3], this molecule registered a fold change (FC) of 8.39. Besides, the Activity entry with RAW264.7 [4] is given as “Non-toxic”.

In the case of `CCCN[C@@H]1CC(=S)N2C[C@@H]3CCCN4CCC[C@@H]([C@H]34)[C@H]2C1`, in the series on RAW264.7 [1], the inhibition result was “Dose-dependent effect” and the IC50 was 93.5 µM. In addition, in the series on RAW264.7 [2], the inhibition at 10 µM was 9.6%. For the same molecule, the fold change (FC) in the series with RAW264.7 [3] stood at 3.4. The Activity result in the series with RAW264.7 [4] is reported as “Non-toxic”.

With `O=C1CCC[C@@H]2[C@H]3CCCN4CCC[C@@H](CN12)[C@@H]34` [MATRINE], in the series on RAW264.7 [1], the inhibition result is “Dose-dependent effect” and the IC50 was over 200 µM. The molecule also returned a fold change (FC) with RAW264.7 [3] of 5.11. The Activity result in the series on RAW264.7 [4] was “Non-toxic”.

Turning to `OCCN[C@@H]1CC(=S)N2C[C@@H]3CCCN4CCC[C@@H]([C@H]34)[C@H]2C1`, in the series with RAW264.7 [1], the inhibition result is “Dose-dependent effect” and the concentration for half-maximal inhibition (IC50) amounted to 39.2 µM. The inhibition at 10 µM with RAW264.7 [2] came to 29.3%. Besides, in the series with RAW264.7 [3], the fold change (FC) amounted to 4.85. Also, the Activity result in the series on RAW264.7 [4] was “Non-toxic”.

Take `CCN[C@@H]1CC(=S)N2C[C@@H]3CCCN4CCC[C@@H]([C@H]34)[C@H]2C1`: in the series with RAW264.7 [1], the inhibition entry was “Dose-dependent effect” and the half-inhibitory concentration (IC50) amounted to 23.5 µM. Further, in the series on RAW264.7 [2], the inhibition at 10 µM amounted to 41.5%. This molecule had a fold change (FC) in the series on RAW264.7 [3] of 1.96. Besides, in the series with RAW264.7 [4], the Activity entry is given as “Non-toxic”.

Take `CN[C@@H]1CC(=S)N2C[C@@H]3CCCN4CCC[C@@H]([C@H]34)[C@H]2C1`: in the series on RAW264.7 [1], the inhibition entry was “Dose-dependent effect” and the concentration for half-maximal inhibition (IC50) was 93.2 µM. Moreover, the inhibition at 10 µM with RAW264.7 [2] amounted to 9.1%. For the same molecule, the fold change (FC) in the series with RAW264.7 [3] came to 3.69. In addition, the Activity result in the series on RAW264.7 [4] was “Non-toxic”.

As to `C=CCN[C@@H]1CC(=S)N2C[C@@H]3CCCN4CCC[C@@H]([C@H]34)[C@H]2C1`, in the series with RAW264.7 [1], the inhibition result is “Dose-dependent effect” and the half-inhibitory concentration (IC50) amounted to 9.4 µM. Further, in the series on RAW264.7 [2], the inhibition at 10 µM worked out at 52.5%. Further, in the series on RAW264.7 [3], the fold change (FC) was 1.47. Besides, in the series on RAW264.7 [4], the Activity entry is “Non-toxic”.

For `N[C@@H]1CC(=O)N2C[C@@H]3CCCN4CCC[C@@H]([C@H]34)[C@H]2C1`, in the series with RAW264.7 [1], the inhibition result is “Dose-dependent effect” and the half-maximal inhibitory concentration (IC50) is over 200 µM. The molecule further returned a fold change (FC) in the series on RAW264.7 [3] of 6.54. Besides, in the series on RAW264.7 [4], the Activity entry is “Non-toxic”.

For the molecule `S=C1C[C@@H](NCC2CC2)C[C@@H]2[C@H]3CCCN4CCC[C@@H](CN12)[C@@H]34`, in the series on RAW264.7 [1], the inhibition entry is “Dose-dependent effect” and the concentration for half-maximal inhibition (IC50) was found to be 119 µM. In addition, the inhibition at 10 µM with RAW264.7 [2] amounted to 16.2%. The same molecule displayed a fold change (FC) with RAW264.7 [3] of 7.83. Moreover, the Activity entry in the series with RAW264.7 [4] was “Non-toxic”.

Consider `O=C1C=CC[C@@H]2[C@H]3CCCN4CCC[C@@H](CN12)[C@@H]34` [SOPHOCARPINE], for which, in the series on RAW264.7 [1], the inhibition entry was “Dose-dependent effect” and the 50% inhibitory concentration (IC50) is over 200 µM. In the series on RAW264.7 [3], this molecule displayed a fold change (FC) of 3.47. Further, in the series with RAW264.7 [4], the Activity result was “Non-toxic”.

Regarding `OCCOCCN[C@@H]1CC(=S)N2C[C@@H]3CCCN4CCC[C@@H]([C@H]34)[C@H]2C1`, in the series on RAW264.7 [1], the inhibition entry is “Dose-dependent effect” and the IC50 is 57.5 µM. Moreover, the inhibition at 10 µM with RAW264.7 [2] is 8.4%. Moreover, the fold change (FC) with RAW264.7 [3] worked out at 4.75. The Activity result in the series on RAW264.7 [4] was “Non-toxic”.

For the molecule `OCCCN[C@@H]1CC(=S)N2C[C@@H]3CCCN4CCC[C@@H]([C@H]34)[C@H]2C1`, in the series on RAW264.7 [1], the inhibition result was “Dose-dependent effect” and the half-inhibitory concentration (IC50) was 53.8 µM. Also, in the series on RAW264.7 [2], the inhibition at 10 µM worked out at 22.8%. The fold change (FC) in the series on RAW264.7 [3] is 3.14. Moreover, in the series on RAW264.7 [4], the Activity result is “Non-toxic”.
